Test results as given in PubChem BioAssay (NCI).
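Protocol summary: plate cells (96-well), add compound at 5 concentrations, incubate 48 h, interpolate endpoints linearly. Definition used: TGI = concentration required for complete inhibition of growth.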

Tests used:
Test in all cases: NCI anticancer screen, dose series, 48 h
BT-549 breast = system: BT-549 breast
SK-MEL-2 melanoma = system: SK-MEL-2 melanoma
MALME-3M melanoma = system: MALME-3M melanoma
HOP-62 NSCLC = system: HOP-62 NSCLC
MDA-MB-435 = system: MDA-MB-435
ACHN renal = system: ACHN renal
K-562 leukemia = system: K-562 leukemia
HCT-116 colon = system: HCT-116 colon
SW-620 colon = system: SW-620 colon
SF-268 CNS = system: SF-268 CNS

For COc1ccc2c(-c3csc(-c4c[nH]c5ccccc45)n3)c[nH]c2c1, the TGI (BT-549 breast) was over 100 µM, the TGI (SK-MEL-2 melanoma) was over 86.2 µM and the TGI (MALME-3M melanoma) was 32.1 µM. It also gave a TGI (HOP-62 NSCLC) of 49.2 µM, a TGI (MDA-MB-435) of over 100 µM and a TGI (ACHN renal) of 16.9 µM. It also gave a TGI (K-562 leukemia) of over 22.1 µM, a TGI (HCT-116 colon) of 19 µM and a TGI (SW-620 colon) of over 100 µM. It also gave a TGI (SF-268 CNS) of 26 µM.
Compound Cc1cc(S(=O)(=O)Nc2n[nH]c(N)n2)c(S)cc1Cl has a TGI (BT-549 breast) of over 10 µM, a TGI (SK-MEL-2 melanoma) of over 10 µM and a TGI (MALME-3M melanoma) of over 10 µM. It also gave a TGI (HOP-62 NSCLC) of over 10 µM, a TGI (MDA-MB-435) of over 10 µM and a TGI (ACHN renal) of over 10 µM. For the same compound, the TGI (K-562 leukemia) was over 10 µM, the TGI (HCT-116 colon) was over 10 µM and the TGI (SW-620 colon) was over 10 µM. For the same compound, the TGI (SF-268 CNS) was over 10 µM.
Compound NC(=O)c1nnc2c(F)cccc2c1N has a TGI (BT-549 breast) of over 100 µM, a TGI (SK-MEL-2 melanoma) of over 100 µM and a TGI (MALME-3M melanoma) of over 100 µM. The TGI (HOP-62 NSCLC) was over 100 µM, the TGI (MDA-MB-435) was over 100 µM and the TGI (ACHN renal) was over 100 µM. For the same compound, the TGI (K-562 leukemia) was over 100 µM, the TGI (HCT-116 colon) was over 100 µM and the TGI (SW-620 colon) was over 100 µM. It also gave a TGI (SF-268 CNS) of over 100 µM.
CN1CCN(C2CC(=O)c3c(Cl)sc(Cl)c32)CC1 (stereo not given) was tested, and the TGI (BT-549 breast) was over 52.2 µM, the TGI (SK-MEL-2 melanoma) was over 59.9 µM and the TGI (MALME-3M melanoma) was over 50.3 µM. It also gave a TGI (HOP-62 NSCLC) of 42.6 µM, a TGI (MDA-MB-435) of 16.5 µM and a TGI (ACHN renal) of 36.6 µM. For the same compound, the TGI (K-562 leukemia) was over 100 µM, the TGI (HCT-116 colon) was 19.2 µM and the TGI (SW-620 colon) was 22.2 µM. The TGI (SF-268 CNS) was over 31.1 µM.
In the case of Cc1cccc2c1C(=O)/C(=C/c1ccccc1C(=O)O)C2, the TGI (BT-549 breast) is reported as over 100 µM, the TGI (SK-MEL-2 melanoma) is reported as over 100 µM and the TGI (MALME-3M melanoma) is reported as over 100 µM. For the same compound, the TGI (HOP-62 NSCLC) was over 100 µM, the TGI (MDA-MB-435) was over 100 µM and the TGI (ACHN renal) was over 100 µM. It also gave a TGI (K-562 leukemia) of over 100 µM, a TGI (HCT-116 colon) of over 100 µM and a TGI (SW-620 colon) of over 100 µM. It also gave a TGI (SF-268 CNS) of over 100 µM.
Compound CC(=O)c1c2c(cc3c1CCC3)CCC2 has a TGI (BT-549 breast) of over 100 µM, a TGI (SK-MEL-2 melanoma) of over 100 µM and a TGI (MALME-3M melanoma) of over 100 µM. The TGI (HOP-62 NSCLC) was over 100 µM, the TGI (MDA-MB-435) was over 100 µM and the TGI (ACHN renal) was over 100 µM. The TGI (K-562 leukemia) was over 100 µM, the TGI (HCT-116 colon) was over 100 µM and the TGI (SW-620 colon) was over 100 µM. For the same compound, the TGI (SF-268 CNS) was over 100 µM.
Compound O=C1CSC(c2cc3cc(Br)ccc3nc2Cl)N1c1ccc(F)c(Cl)c1 (stereo not given) has a TGI (BT-549 breast) of over 50 µM, a TGI (SK-MEL-2 melanoma) of over 50 µM and a TGI (MALME-3M melanoma) of over 50 µM. For the same compound, the TGI (HOP-62 NSCLC) was over 50 µM, the TGI (MDA-MB-435) was over 50 µM and the TGI (ACHN renal) was over 50 µM. The TGI (K-562 leukemia) was over 50 µM, the TGI (HCT-116 colon) was over 50 µM and the TGI (SW-620 colon) was over 50 µM. It also gave a TGI (SF-268 CNS) of over 50 µM.
C/C(=N/NC(=O)c1ccccc1Nc1ccccc1C(=O)N/N=C(\C)c1ccc(C)cc1)c1ccc(C)cc1 gave a TGI (BT-549 breast) of over 100 µM, a TGI (SK-MEL-2 melanoma) of over 100 µM and a TGI (MALME-3M melanoma) of over 100 µM. For the same compound, the TGI (HOP-62 NSCLC) was over 100 µM, the TGI (MDA-MB-435) was over 100 µM and the TGI (ACHN renal) was over 100 µM. It also gave a TGI (K-562 leukemia) of over 100 µM, a TGI (HCT-116 colon) of over 100 µM and a TGI (SW-620 colon) of over 100 µM. It also gave a TGI (SF-268 CNS) of over 100 µM.
Compound COc1ccc(C2CCc3c(cnc4nc(N)nc(N)c34)C2)cc1 (stereo not given) has a TGI (BT-549 breast) of over 100 µM, a TGI (SK-MEL-2 melanoma) of over 100 µM and a TGI (MALME-3M melanoma) of over 100 µM. The TGI (HOP-62 NSCLC) was 65 µM, the TGI (MDA-MB-435) was over 100 µM and the TGI (ACHN renal) was 51 µM. The TGI (K-562 leukemia) was over 100 µM, the TGI (HCT-116 colon) was over 100 µM and the TGI (SW-620 colon) was over 100 µM. The TGI (SF-268 CNS) was over 100 µM.
For COc1nc2ncc([C@@H](O)[C@H](O)CO)nc2c(=O)[nH]1, the TGI (BT-549 breast) was over 100 µM, the TGI (SK-MEL-2 melanoma) was over 100 µM and the TGI (MALME-3M melanoma) was over 100 µM. For the same compound, the TGI (HOP-62 NSCLC) was over 100 µM, the TGI (MDA-MB-435) was over 100 µM and the TGI (ACHN renal) was over 100 µM. It also gave a TGI (K-562 leukemia) of over 100 µM, a TGI (HCT-116 colon) of over 100 µM and a TGI (SW-620 colon) of over 100 µM. For the same compound, the TGI (SF-268 CNS) was over 100 µM.
Nc1nn2cc(-c3ccccc3)[n+](CC(=O)c3ccccc3)c2s1 showed a TGI (BT-549 breast) of 40.5 µM, a TGI (SK-MEL-2 melanoma) of 30.4 µM and a TGI (MALME-3M melanoma) of 27.3 µM. It also gave a TGI (HOP-62 NSCLC) of 87.5 µM, a TGI (MDA-MB-435) of over 100 µM and a TGI (ACHN renal) of over 100 µM. The TGI (K-562 leukemia) was 66.7 µM, the TGI (HCT-116 colon) was 30.3 µM and the TGI (SW-620 colon) was 55.9 µM. The TGI (SF-268 CNS) was 50.6 µM.
In the case of CCOC(=O)CCC1(C(=O)O[C@@H]2C[C@H](C)CC[C@H]2C(C)C)CCCCC1=O (stereo not given in full), the TGI (BT-549 breast) is reported as over 100 µM, the TGI (SK-MEL-2 melanoma) is reported as over 100 µM and the TGI (MALME-3M melanoma) is reported as over 100 µM. It also gave a TGI (HOP-62 NSCLC) of over 100 µM, a TGI (MDA-MB-435) of over 100 µM and a TGI (ACHN renal) of over 100 µM. The TGI (K-562 leukemia) was over 100 µM, the TGI (HCT-116 colon) was over 100 µM and the TGI (SW-620 colon) was over 100 µM. It also gave a TGI (SF-268 CNS) of over 100 µM.
Cc1nc2ccccc2nc1N1CCCC1 gave a TGI (BT-549 breast) of over 100 µM, a TGI (SK-MEL-2 melanoma) of over 100 µM and a TGI (MALME-3M melanoma) of over 100 µM. The TGI (HOP-62 NSCLC) was over 100 µM, the TGI (MDA-MB-435) was over 100 µM and the TGI (ACHN renal) was over 100 µM. The TGI (K-562 leukemia) was over 100 µM, the TGI (HCT-116 colon) was over 100 µM and the TGI (SW-620 colon) was over 100 µM. The TGI (SF-268 CNS) was over 100 µM.
CC(C)(CO)Nc1c(O)c2c(c(O)c1Cl)C(=O)C=CC2=O gave a TGI (BT-549 breast) of 2.24 µM, a TGI (SK-MEL-2 melanoma) of 4.8 µM and a TGI (MALME-3M melanoma) of 3.33 µM. It also gave a TGI (HOP-62 NSCLC) of 2.95 µM, a TGI (MDA-MB-435) of 2.38 µM and a TGI (ACHN renal) of 3.08 µM. The TGI (K-562 leukemia) was 1.78 µM, the TGI (HCT-116 colon) was 3.07 µM and the TGI (SW-620 colon) was 1.37 µM. It also gave a TGI (SF-268 CNS) of 6.03 µM.
CC(C)(C)C1=CC(O)(c2c3ccccc3c(C3(O)C=C(C(C)(C)C)C(=O)C(C(C)(C)C)=C3)c3ccccc23)C=C(C(C)(C)C)C1=O gave a TGI (BT-549 breast) of over 100 µM, a TGI (SK-MEL-2 melanoma) of over 100 µM and a TGI (MALME-3M melanoma) of over 100 µM. It also gave a TGI (HOP-62 NSCLC) of over 100 µM, a TGI (MDA-MB-435) of 0.0354 µM and a TGI (ACHN renal) of over 100 µM. The TGI (K-562 leukemia) was over 100 µM, the TGI (HCT-116 colon) was over 100 µM and the TGI (SW-620 colon) was over 100 µM. The TGI (SF-268 CNS) was over 100 µM.
For Cc1cnc2cc(Cl)ccc2c1SCC(=O)O, the TGI (BT-549 breast) was over 100 µM, the TGI (SK-MEL-2 melanoma) was over 100 µM and the TGI (MALME-3M melanoma) was over 100 µM. For the same compound, the TGI (HOP-62 NSCLC) was over 100 µM, the TGI (MDA-MB-435) was over 100 µM and the TGI (ACHN renal) was over 100 µM. It also gave a TGI (K-562 leukemia) of over 100 µM, a TGI (HCT-116 colon) of over 100 µM and a TGI (SW-620 colon) of over 100 µM. The TGI (SF-268 CNS) was over 100 µM.
